“And” between values parts separate entries of the source, which are not always exact repeats. Equal values may be shown once. Read-outs that look alike come from different tables or passages of the source.
Columns and labels:
cultured fibroblasts = experiment: Non-specific effects on cultured fibroblasts; format: cell-based
Method: (§1) At concentrations over 80 nM, HF has a variety of non-specific effects on both T-cells and fibroblasts. […] At the recommended tolerated dose for chronic treatment (0.5 mg/day), plasma levels of HF were ˜0.5 ng/ml (1 nM). (de.Jonge et al., Eur J Cancer, vol. 42(12):1768-74 (2006)).

[1] = cited from earlier work
fibrosis = settings: Pines et al.; cited from earlier work
RORγt = RORγt expression during Th17 differentiation (real-time PCR); format: cell-based, mouse; settings: 10 nM HF
Method: T cells were harvested at the indicated times following activation, RNA was isolated and quantitative real-time PCR was performed using RORγt-specific primers and taqman probe. RORγt expression was normalized to Gapdh levels, and the data are presented as fold changes relative to naïve T cells.
Quantitative real-time PCR: T cells were activated as described above, collected at the indicated times and pellets were flash-frozen in liquid nitrogen. Total RNA was obtained by RNeasy (Quiagen, Valencia, Calif.) column purification per manufacturers instructions. RORγt expression was determined after reverse transcription using the message sensor kit (Ambion, Austin, Tex.) per manufacturers instructions and taqman primers and probe as described elsewhere (I. Ivanov, et al., Cell 126, 1121, 2006). Sybrgreen quantitative real-time PCR was performed on T cell RNA samples following reverse transcription via SuperScript II first-strand cDNA synthesis kit (Invitrogen, Carlsbad, Calif.). All PCR data was collected on an iCycler thermal cycler (Biorad, Hercules, Calif.). Primer sequences used for detecting stress response genes are listed below.

primary T cells = format: cell-based
Method: The non-specific cytoxicity of HF in both normal and transformed T-cells at high doses was evaluated. Anti-CD3/anti-CD28 activated primary T cells were harvested 6 days after activation and cultured in the presence of IL-2 with or without HF (100 nM). As a positive control, some T cells were cultured without IL-2 to induce apoptosis (FIG. 3A). Jurkat T cells, a transformed T cell leukemia line, were cultured in complete medium with or without HF (100 nM) as indicated (FIG. 3B). Both primary and Jurkat T cells were cultured for 30 hours and programmed cell death, i.e. apoptosis, was determined by Annexin V staining and propidium iodide (PI) uptake and cells were analyzed by flow cytometry. The percent of apoptotic T cells at each time point was plotted and was defined as Annexin V^+ PI^−. […] In further experiments, titrating amounts of HF were added to primary T cells and apoptosis was determine as above at the indicated time points. At 100 nM HF, but not 30 nM or lower, generalized T-cell apoptosis was observed (FIG. 3C).

[2] = test system: amino acid response (AAR) pathway: eIF2α, ATF4; experiment: eIF2α phosphorylation and ATF4 protein levels in T cells (immunoblot); format: cell-based, mouse
Method: Whole cell lysates were prepared 4 hours-post TCR activation and immunoblotting was performed with the indicated antibodies. ATF4 protein is indicated by arrowhead. NS-non-specific band.
FIG. 12E is an illustration depicting immunoblot analysis of purified CD4^+ CD25^− T cells activated through the TCR for the indicated times without exogenous cytokines in the presence of either 10 nM MAZ1310 or 10 nM HF as indicated. Whole cells lysates were prepared during the timecourse and immunoblotting was performed.
Western blotting: Whole cell lysates were generated from T cells activated for the indicated times. For STAT3 and Smad2/3 western blots cells were harvested, washed in PBS and lysed in 50 mM Tris, pH 7.4, 0.1% SDS, 1% Triton-X100, 140 mM NaCl, 1 mM EDTA, 1 mM EGTA supplemented with protease inhibitors tablets (Roche-Germany), 1 mM NaF and 1 mM Na3VO4. For eIF2α and ATF4 western blots, cells were harvested as above and lysed in 50 mM Tris, pH 7.4, 2% SDS, 20% glycerol and 2 mM EDTA supplemented with protease and phosphatase inhibitors as above. All lysates were cleared via centrifugation and 15-30 μg of protein was resolved by SDS-PAGE. Protein was transferred to nitrocellulose membranes, blocked and blotted using specific antibodies. Antibodies used for western blot analysis were anti-phospho-Smad2, anti-STAT3 (pY705), anti-STAT3, anti-eIF2α^pS51, anti-eIF2α, anti-GCN2^pT898, anti-GCN2 (all from cell signaling technology, Danvers, Mass.). Anti-ATF4/CREB2 and anti-β-actin were purchased from Santa Cruz biotechnology (Santa Cruz, Calif.). HRP-conjugated secondary antibodies were all purchased from Sigma, with the exception of HRP-conjugated anti-armenian hamster antibody (Jackson Immunoresearch—West Grove, Pa.).
To address directly whether HF activates the AAR pathway, eIF2a phosphorylation and ATF4 protein levels in HF-treated T cells were examined. HF induced detectable eIF2α phosphorylation at 2.5 nM, and this effect plateaued at 5-10 nM HF (FIG. 12D). […] AAR activation was a general consequence of HF treatment: HF induced eIF2α phosphorylation not only in T cells activated in Th17-priming conditions, but also in resting naïve T cells and T cells activated in ThN, Th1, Th2 and iTreg polarizing conditions (FIG. 12F). […] (Rathmell, J. C., Elstrom, R. L., Cinalli, R. M. & Thompson, C. B. Activated Akt promotes increased resting T cell size, CD28-independent T cell growth, and development of autoimmunity and lymphoma. Eur J Immunol 33, 2223-32 (2003)). Thus, the rapid activation of the AAR pathway by HF underlies both its selective inhibition of Th17 differentiation and its effects on fibroblasts. (Pines, M. & Nagler, A. Halofuginone: a novel antifibrotic therapy. Gen Pharmacol 30, 445-50 (1998)).

T-cells and fibroblasts = experiment: Effects on pro-inflammatory and pro-fibrotic gene expression in T-cells and fibroblasts in vitro; format: cell-based
Method: as §1
In T-cells and fibroblasts in vitro, HF has highly specific effects on pro-inflammatory and pro-fibrotic gene expression in a dose range of ˜2-40 nM. At doses>80 nM, non-specific effects on protein synthesis and cell proliferation are seen. The compositions are formulated to deliver a dosage of HF that will have specific effects on pro-inflammatory cytokine expression or ECM architecture in the 2-40 nM range, but keep the dosage below levels that can cause non-specific effects.

Compound: O=C(CC1NCCCC1O)Cn1cnc2cc(Br)c(Cl)cc2c1=O (racemic) [HF, 7-bromo-6-chloro-3-[3-(3-hydroxy-2-piperidinyl)-2-oxopropyl]-4(3H)-quinazolinone]
- concentration inhibiting protein synthesis and cell proliferation in fibroblast culture (cultured fibroblasts): over 80 nM
- signaling downstream of mTOR in fibroblasts, in words (cultured fibroblasts): did not inhibit signaling downstream of mTOR
- death of cultured fibroblasts, in words (cultured fibroblasts; doses up to 500 nM over 5 days): does not, however, cause death
- peak plasma concentration ([1]; oral 3.5 mg/day): 3 ng/ml and ~8 nM
- dose at which dose limiting toxicity occurred ([1]; oral (de Jonge et al.)): 3.5 mg/day
- dose limiting toxicity, in words ([1]; oral): nausea and vomiting
- recommended tolerated dose for chronic treatment ([1]; oral): 0.5 mg/day
- dose limiting toxicity, in words ([1]; oral, listed as halofuginone): nausea
- concentration range for inhibition of fibrosis in vitro (fibrosis): 1 to 200 nM
- effect on upregulation of RORγt or RORγ during Th17 differentiation, in words (RORγt): did not interfere with the upregulation of RORγt or RORγ
- concentration at which generalized T-cell apoptosis was not observed (primary T cells): ≤ 30 nM
- concentration at which generalized T-cell apoptosis was observed (primary T cells): 100 nM
- time at which eIF2α phosphorylation reached maximum levels ([2]; 10 nM HF): ≤ 2 h
- time until which ATF4 protein continued to accumulate ([2]; 10 nM HF): 4 h
- concentration at which eIF2α phosphorylation plateaued ([2]; 4 hours post TCR activation): 5 to 10 nM
- concentration giving highest ATF4 expression levels ([2]; 4 hours post TCR activation): 5 to 10 nM
- concentration inducing detectable eIF2α phosphorylation ([2]; 4 hours post TCR activation): 2.5 nM
- higher concentrations at which ATF4 expression levels were reduced ([2]; 4 hours post TCR activation): 20 to 40 nM
- dose range of highly specific effects on pro-inflammatory and pro-fibrotic gene expression (T-cells and fibroblasts): 2 to 40 nM
